Experimental data: ChEMBL document CHEMBL1137452, “Synthesis of disulfide esters of dialkylaminocarbothioic acid as potent, non-detergent spermicidal agents” (Bioorg Med Chem, 2007)
Values after ≈ are worked out from the molar mass of the structure shown. Active and inactive are the calls of the source. The rule behind the calls is not given here.

How the values were obtained:
[1] = test system: Candida parapsilosis; experiment: Antifungal activity against Candida parapsilosis ATCC 22019 after 48 hrs by broth micro dilution technique; assay type: functional, organism-based; conditions: Lodderomyces parapsilosis, ATCC 22019, 48 h
[2] = test system: Candida albicans; experiment: Antifungal activity against Candida albicans MTCC 183 after 48 hrs by broth micro dilution technique; assay type: functional, organism-based; conditions: MTCC 183, 48 h
[3] = test system: Candida albicans; experiment: Antifungal activity against Candida albicans MTCC 1346 after 48 hrs by broth micro dilution technique; assay type: functional, organism-based; conditions: MTCC 1346, 48 h
[4] = test system: Candida albicans; experiment: Antifungal activity against Candida albicans ATCC 60193 after 48 hrs by broth micro dilution technique; assay type: functional, organism-based; conditions: ATCC 60193, 48 h
[5] = organism: Homo sapiens; experiment: Spermicidal activity against human spermatozoa; assay type: functional
[6] = test system: Candida albicans; experiment: Antifungal activity against Candida albicans ATCC 66027 after 48 hrs by broth micro dilution technique; assay type: functional, organism-based; conditions: ATCC 66027, 48 h
[7] = test system: Candida albicans; experiment: Antifungal activity against Candida albicans ATCC 10453 after 48 hrs by broth micro dilution technique; assay type: functional, organism-based; conditions: ATCC 10453, 48 h
[8] = test system: Pichia kudriavzevii; experiment: Antifungal activity against Candida krusei ATCC 6258 after 48 hrs by broth micro dilution technique; assay type: functional, organism-based; conditions: ATCC 6258, 48 h
[9] = test system: Candida albicans; experiment: Antifungal activity against Candida albicans after 48 hrs by broth micro dilution technique; assay type: functional, organism-based
[10] = test system: Candida albicans; experiment: Antifungal activity against Candida albicans ATCC 10231 after 48 hrs by broth micro dilution technique; assay type: functional, organism-based; conditions: ATCC 10231, 48 h
[11] = organism: Homo sapiens; experiment: Spermicidal activity against human spermatozoa at 1.0% w/v; assay type: functional

SMILES	IC50 [1]	MIC [1]	IC50 [2]	MIC [2]	IC50 [3]	MIC [3]	IC50 [4]	MIC [4]	MEC [5]	IC50 [6]	MIC [6]	IC50 [7]	MIC [7]	IC50 [8]	MIC [8]	IC50 [9]	MIC [9]	IC50 [10]	MIC [10]	Activity [11]
O=C(SCC(CN1CCCCC1)SSC(CSC(=O)N1CCCCC1)CN1CCCCC1)N1CCCCC1 (racemic)	> 50 µg/mL	> 50 µg/mL	> 50 µg/mL	> 50 µg/mL	> 50 µg/mL	> 50 µg/mL	> 50 µg/mL	> 50 µg/mL	0.05 %w/v	> 50 µg/mL	> 50 µg/mL	> 50 µg/mL	> 50 µg/mL	> 50 µg/mL	> 50 µg/mL	> 50 µg/mL	> 50 µg/mL	> 50 µg/mL	> 50 µg/mL	–
OC(Cn1cncn1)(Cn1cncn1)c1ccc(F)cc1F [FLUCONAZOLE]	0.21 µg/mL (≈ 0.686 µM)	1 µg/mL (≈ 3.27 µM)	0.26 µg/mL (≈ 0.849 µM)	0.5 µg/mL (≈ 1.63 µM)	0.58 µg/mL (≈ 1.89 µM)	2 µg/mL (≈ 6.53 µM)	0.1 µg/mL (≈ 0.327 µM)	0.25 µg/mL (≈ 0.816 µM)	0.1 %w/v	0.18 µg/mL (≈ 0.588 µM)	0.25 µg/mL (≈ 0.816 µM)	0.63 µg/mL (≈ 2.06 µM)	1 µg/mL (≈ 3.27 µM)	1.38 µg/mL (≈ 4.51 µM)	4 µg/mL (≈ 13.1 µM)	0.13 µg/mL (≈ 0.424 µM)	0.5 µg/mL (≈ 1.63 µM)	0.35 µg/mL (≈ 1.14 µM)	1 µg/mL (≈ 3.27 µM)	–
O=C(SCC(CN1CCOCC1)SSC(CSC(=O)N1CCCCC1)CN1CCOCC1)N1CCCCC1 (racemic)	–	–	–	–	–	–	–	–	0.1 %w/v	–	–	–	–	–	–	–	–	–	–	–
O=C(SCC(CN1CCOCC1)SSC(CSC(=O)N1CCOCC1)CN1CCOCC1)N1CCOCC1 (racemic)	–	–	–	–	–	–	–	–	–	–	–	–	–	–	–	–	–	–	–	inactive
O=C(SCC(CN1CCCC1)SSC(CSC(=O)N1CCCC1)CN1CCCC1)N1CCCC1 (racemic)	31 µg/mL (≈ 56.7 µM)	50 µg/mL (≈ 91.4 µM)	29 µg/mL (≈ 53 µM)	50 µg/mL (≈ 91.4 µM)	> 50 µg/mL	> 50 µg/mL	> 50 µg/mL	> 50 µg/mL	0.002 %w/v	42 µg/mL (≈ 76.8 µM)	> 50 µg/mL	> 50 µg/mL	> 50 µg/mL	33 µg/mL (≈ 60.3 µM)	50 µg/mL (≈ 91.4 µM)	43 µg/mL (≈ 78.6 µM)	> 50 µg/mL	> 50 µg/mL	> 50 µg/mL	–
O=C(SCC(CN1C=CC=CC=C1)SSC(CSC(=O)N1CCOCC1)CN1C=CC=CC=C1)N1CCOCC1 (racemic)	39 µg/mL (≈ 62.6 µM)	50 µg/mL (≈ 80.3 µM)	25 µg/mL (≈ 40.1 µM)	50 µg/mL (≈ 80.3 µM)	35 µg/mL (≈ 56.2 µM)	50 µg/mL (≈ 80.3 µM)	42 µg/mL (≈ 67.4 µM)	50 µg/mL (≈ 80.3 µM)	0.05 %w/v	> 50 µg/mL	> 50 µg/mL	> 50 µg/mL	> 50 µg/mL	32 µg/mL (≈ 51.4 µM)	50 µg/mL (≈ 80.3 µM)	> 50 µg/mL	> 50 µg/mL	> 50 µg/mL	> 50 µg/mL	–
O=C(SCC(CN1C=CC=CC=C1)SSC(CSC(=O)N1CCCC1)CN1C=CC=CC=C1)N1CCCC1 (racemic)	42 µg/mL (≈ 71.1 µM)	50 µg/mL (≈ 84.6 µM)	26 µg/mL (≈ 44 µM)	50 µg/mL (≈ 84.6 µM)	50 µg/mL (≈ 84.6 µM)	50 µg/mL (≈ 84.6 µM)	42 µg/mL (≈ 71.1 µM)	50 µg/mL (≈ 84.6 µM)	0.05 %w/v	> 50 µg/mL	> 50 µg/mL	> 50 µg/mL	> 50 µg/mL	32 µg/mL (≈ 54.2 µM)	50 µg/mL (≈ 84.6 µM)	50 µg/mL (≈ 84.6 µM)	> 50 µg/mL	> 50 µg/mL	> 50 µg/mL	–
O=C(SCC(CN1CCCC1)SSC(CSC(=O)N1CCCCC1)CN1CCCC1)N1CCCCC1 (racemic)	48 µg/mL (≈ 83.5 µM)	50 µg/mL (≈ 87 µM)	32 µg/mL (≈ 55.7 µM)	50 µg/mL (≈ 87 µM)	48 µg/mL (≈ 83.5 µM)	50 µg/mL (≈ 87 µM)	41 µg/mL (≈ 71.3 µM)	> 50 µg/mL	0.002 %w/v	43 µg/mL (≈ 74.8 µM)	> 50 µg/mL	> 50 µg/mL	> 50 µg/mL	30 µg/mL (≈ 52.2 µM)	50 µg/mL (≈ 87 µM)	47 µg/mL (≈ 81.7 µM)	> 50 µg/mL	48 µg/mL (≈ 83.5 µM)	50 µg/mL (≈ 87 µM)	–
CN1CCN(CC(CSC(=O)N2CCCC2)SSC(CSC(=O)N2CCCC2)CN2CCN(C)CC2)CC1 (racemic)	–	–	–	–	–	–	–	–	1 %w/v	–	–	–	–	–	–	–	–	–	–	–
CCN(CC)C(=O)SCC(CN1CCCCC1)SSC(CSC(=O)N(CC)CC)CN1CCCCC1 (racemic; 29)	–	–	–	–	–	–	–	–	–	–	–	–	–	–	–	–	–	–	–	inactive
O=C(SCC(CN1CCCCC1)SSC(CSC(=O)N1CCOCC1)CN1CCCCC1)N1CCOCC1 (racemic)	–	–	–	–	–	–	–	–	0.5 %w/v	–	–	–	–	–	–	–	–	–	–	–
CCN(CC)C(=O)SCC(CN1CCOCC1)SSC(CSC(=O)N(CC)CC)CN1CCOCC1 (configuration not stated)	–	–	–	–	–	–	–	–	–	–	–	–	–	–	–	–	–	–	–	inactive
CCN(C)C(=O)SCC(CN1CCN(C)CC1)SSC(CSC(=O)N(C)CC)CN1CCN(C)CC1 (racemic)	–	–	–	–	–	–	–	–	–	–	–	–	–	–	–	–	–	–	–	inactive
O=C(SCC(CN1CCCC1)SSC(CSC(=O)N1CCOCC1)CN1CCCC1)N1CCOCC1 (racemic)	–	–	–	–	–	–	–	–	0.1 %w/v	–	–	–	–	–	–	–	–	–	–	–
CCN(CC)C(=O)SCC(CN1CCCCC1)SSC(CSC(=O)N(CC)CC)CN1CCCCC1 (racemic; 26)	–	–	–	–	–	–	–	–	–	–	–	–	–	–	–	–	–	–	–	inactive
O=C(SCC(CN1CCCCC1)SSC(CSC(=O)N1CCCC1)CN1CCCCC1)N1CCCC1 (racemic)	48 µg/mL (≈ 83.5 µM)	50 µg/mL (≈ 87 µM)	42 µg/mL (≈ 73.1 µM)	> 50 µg/mL	> 50 µg/mL	> 50 µg/mL	> 50 µg/mL	> 50 µg/mL	0.05 %w/v	> 50 µg/mL	> 50 µg/mL	> 50 µg/mL	> 50 µg/mL	49 µg/mL (≈ 85.2 µM)	50 µg/mL (≈ 87 µM)	> 50 µg/mL	> 50 µg/mL	> 50 µg/mL	> 50 µg/mL	–
CCN(C)C(=O)SCC(CN1CCCCC1)SSC(CSC(=O)N(C)CC)CN1CCCCC1 (racemic)	–	–	–	–	–	–	–	–	–	–	–	–	–	–	–	–	–	–	–	inactive
CCCCCCCCCc1ccc(OCCOCCOCCOCCOCCOCCOCCOCCOCCO)cc1 [NONOXYNOL 9]	47 µg/mL (≈ 76.2 µM)	50 µg/mL (≈ 81.1 µM)	41 µg/mL (≈ 66.5 µM)	> 50 µg/mL	> 50 µg/mL	> 50 µg/mL	> 50 µg/mL	> 50 µg/mL	0.05 %w/v	> 50 µg/mL	> 50 µg/mL	> 50 µg/mL	> 50 µg/mL	48 µg/mL (≈ 77.8 µM)	50 µg/mL (≈ 81.1 µM)	46 µg/mL (≈ 74.6 µM)	> 50 µg/mL	> 50 µg/mL	> 50 µg/mL	–
CN1CCN(CC(CSC(=O)N2CCCCC2)SSC(CSC(=O)N2CCCCC2)CN2CCN(C)CC2)CC1 (racemic)	40 µg/mL (≈ 63.2 µM)	50 µg/mL (≈ 79 µM)	> 50 µg/mL	50 µg/mL (≈ 79 µM)	> 50 µg/mL	50 µg/mL (≈ 79 µM)	43 µg/mL (≈ 67.9 µM)	> 50 µg/mL	0.05 %w/v	40 µg/mL (≈ 63.2 µM)	> 50 µg/mL	46 µg/mL (≈ 72.7 µM)	> 50 µg/mL	35 µg/mL (≈ 55.3 µM)	50 µg/mL (≈ 79 µM)	47 µg/mL (≈ 74.2 µM)	50 µg/mL (≈ 79 µM)	> 50 µg/mL	50 µg/mL (≈ 79 µM)	–
O=C(SCC(CN1CCOCC1)SSC(CSC(=O)N1CCCC1)CN1CCOCC1)N1CCCC1 (racemic)	–	–	–	–	–	–	–	–	–	–	–	–	–	–	–	–	–	–	–	inactive
